Measured values from patent US20220110985A1, “NUTRITIONAL COMPOSITION COMPRISING 2'FUCOSYLLACTOSE AND 3'GALACTOSYLLACTOSE” (N.V. Nutricia, priority 2019, published 2022).

Columns and labels:
[1] = system: infant intestinal microbiota; assay: quad-SHIME infant intestinal microbiota model (SCFA, glycoprofile); format: cell-based, human infant faecal inoculum; parameters: Butyrate (Mean ± SD) / Iso-Butyrate (Mean ± SD) / Acetate (Mean ± SD): unit not given here; conditions: distal colon
Text: A faecal sample from a healthy infant born via C-section, exclusively breastfed with no history of antibiotic usage, was used as inoculum to simulate the infant intestinal microbiota in the colon compartments of a quad-SHIME®—a dynamic model of the human gastrointestinal tract comprises 4 SHIME® units running in parallel and each SHIME® unit is composed of 3 reactors simulating the stomach and small intestine, proximal and distal colons.

[2] = system: Salmonella enteriditis S29; assay: Fecal slurry fermentation spiked with pathogens: Salmonella; format: cell-based
Method: (§1) Anaerobic fermentation of fecal slurry samples was tested in a BioLector Pro microfluidics mini multifermentor. Faecal slurry samples were collected from breast fed infants and from formula fed infants. These faecal slurry samples were processed by adding 0.6 grams feces in 40 ml Baby Reichardt V.6 medium+mucus+Ammonium sulfate+lactate and acetate. The resulting solutions were inserted to the BioLector Pro microfluidics mini multifermentor. The test legs were supplemented with 3-GL, 2′-FL, 3′-GL+2′-FL, and GOS/FOS. The control leg was supplemented with sterile water.
(§2) In addition the test legs were supplemented with Clostridium difficile C153 (difficile agar), Salmonella enteriditis S29 (XLD agar), Cronobacter sakasakii E71 (chromogenic agar) or Klebsiella pneumonia K2 (Simons citrate inositol agar). For every NDO and for the control also a pathogen free culture was prepared.
(§3) A 32 well plate that can handle low pH was used. The wells of this plate were filled with fecal solution. 2.5% (w/v) of the different sterile carbohydrate solutions (3′-GL, 2′-FL, 2′-FL/3′-GL (2.0+0.5%). and Glucose were added to the fecal slurry according to a template. […]

Klebsiella pneumonia K2 = assay: Fecal slurry fermentation spiked with pathogens: Klebsiella; format: cell-based; conditions: inoculum of baby 2, spiked
Method: as §1, §2, §3

Row | Compound | Acetate (Mean ± SD) ([1]; D1-D3) | Butyrate (Mean ± SD) ([1]; D1-D3) | Iso-Butyrate (Mean ± SD) ([1]; D1-D3) | Propionate (Mean ± SD) ([1]; D1-D3) | Acetate (Mean ± SD) ([1]; D4-D11) | Butyrate (Mean ± SD) ([1]; D4-D11) | Iso-Butyrate (Mean ± SD) ([1]; D4-D11) | Propionate (Mean ± SD) ([1]; D4-D11) | Acetate (Mean ± SD) ([1]; D12-D15) | Butyrate (Mean ± SD) ([1]; D12-D15) | Iso-Butyrate (Mean ± SD) ([1]; D12-D15) | Propionate (Mean ± SD) ([1]; D12-D15) | butyrate generation, in words ([1]; relative to control and scGOS/lcFOS groups) | Salmonella growth ([2]; inoculum of baby 1, spiked) | Salmonella growth ([2]; inoculum of baby 2, spiked) | Klebsiella growth (Klebsiella pneumonia K2)
1 | C[C@@H]1O[C@@H](O[C@H]2[C@H](O[C@H]3[C@H](O)[C@@H](O)C(O)O[C@@H]3CO)O[C@H](CO)[C@H](O)[C@@H]2O)[C@@H](O)[C@H](O)[C@@H]1O (stereo partly drawn) [2′-FL, α-L-Fuc-(1→2)-β-D-Gal-(1→4)-D-Glc] | 38.67 ± 10.25 | 0 ± 0 | 0 ± 0 | 10.17 ± 3.01 | 26.22 ± 0.97 | 0.74 ± 0.49 | 0.68 ± 0.75 | 6.58 ± 0.49 | 22.96 ± 1.04 | 0.99 ± 0.09 | 0.93 ± 0.21 | 6.13 ± 0.63 | generated earlier in the distal colon and at a higher concentration | most restricted | most restricted | –
2 | Gal (beta 1-3)-Gal (beta 1-4)-Glc [3′-GL] | – | – | – | – | – | – | – | – | – | – | – | – | – | – | – | most inhibited
